{"source": "patent US20050042714A1", "about": "“Glycoconjugates of sialic acid derivates, methods for their production and use thereof” (priority 2001, published 2005)", "key": {"[1]": {"test_system": "B-lymphotropic papovavirus (LPV) in BJA-B K20 cells", "assay": "LPV infection of analogue-treated hyposialylated cells (VP1 ELISA, T-antigen immunofluorescence)", "format": "cell-based, human", "details": "BJA-B K20 cells (statement also covers K88 cells)", "procedure": "Changes in permissivity for the sialic acid-dependent B-lymphotropic papovavirus (LPV) in hyposialylated (K20) and normally sialylated (K88) BJA-B cells after treatment with sialic acid analogues. Cells were treated with analogues or NeuAc for 3d. 50 h post LPV inoculation the LPV infection was quantified (A) by detecting the amount of LPV VP1 in cell lysates relative to the total protein content by ELISA and (B) by indirect immunofluorescence microscopy as percentage of LPV T-antigen-positive BJA-B K20 cells. A, values are given as arithmetic means±SD of three independent experiments. B, representatives of three experiments are shown. DAPI-staining (left) indicates the total amount of cells in the section, on the right LPV T-antigen positive cells are shown with the average percentage given beside. […]\nBJA-B subclones were infected with the B-lymphotropic papovavirus (LPV) as described (Keppler, O. T., Herrmann, M., Oppenländer, M., Meschede, W., and Pawlita, M. (1994) J Virol 68(11), 6933-9). […] LPV infection was quantified by indirect immunofluorescence microscopy as percentage of LPV T-antigen positive cells and the amount of LPV VP1 in cell lysates was determined by ELISA relative to the total protein extracted."}, "[2]": {"test_system": "HL60-I cells", "assay": "metabolic complementation assay: lectin staining (VVA, LFA, TLM) of analogue-treated cells by flow cytometry", "format": "cell-based, human", "details": "5 mM, 24 h", "procedure": "Medium supplementation with some synthetic sialic acid analogues restores cell surface sialylation in hyposialylated HL60-I cells. Cells were cultivated in the presence of indicated synthetic sialic acid analogue (5 mM) for 24 h and stained with either directly fluorochrome-coupled lectins (VVA, LFA) or biotin-coupled lectin (TLM) and streptavidin-FITC and analyzed by flow cytometry. Values are given as “relative factor of change” (RFC) of the “mean fluorescence intensity” (MFI) of sialic acid-treated cells relative to untreated cells. The bars represent arithmetic means±SD (n^34) of one (x) or ≧two experiments.\nTo test whether cells can incorporate synthetic sialic acid analogues from the culture medium, a metabolic complementation assay was performed on endogenously hyposialylated, UDP-GlcNAc-2-epimerase-deficient HL60-I cells.\nCells were cultivated for 24 h in the presence of one of 16 different synthetic sialic acid analogues, carrying distinct C5 or C9 modifications (FIG. 1), and subsequently, changes in cell surface sialylation were assessed by flow cytometry using three fluorochrome-conjugated sialic acid-sensitive lectins. Vicia villosa agglutinin (VVA) detects GalNAc residues, and its binding sites can be masked by the addition of terminal sialic acid residues.\nIn sugar supplementation assays, cells seeded at 5×10^5 cells/ml in culture medium buffered with 40 mM HEPES (pH 7.2) were cultivated for 24 h in the presence or absence of 5 mM sialic acids (stocks of 100 mM dissolved in H2O, stored at 4° C.).\nLyophilized FITC-conjugated lectins Vicia villosa (VVA) was obtained from Sigma, dissolved in H2O (1 mg/ml), aliquoted and stored at −20° C. according to the manufacturer's instructions. FITC-conjugated Limax flavus agglutinin (LFA) was from EY Laboratories (San Manteo, Calif., USA) and biotin-coupled Tritrichomonas mobilensis agglutinin (TLM) from Calbiochem. Lectin staining procedure and fluorescence-activated cell scanning on a Becton Dickinson FACScan cytometer using Cellquest II software were carried out as described (Keppler, O. T., Molden-hauer, G., Oppenländer, M., Schwartz-Albiez, R., Berger, E. G., Funderud, S., and Pawlita, M. (1992) Eur J Immunol 22(11), 2777-81). Briefly, cells (3×10^5) were washed twice in cold PBS and then incubated in 100 μl PBS/0.05% NaN3, containing either fluorochrome-conjugated lectins VVA (50 μg/ml), LFA (20 μg/ml), or biotinylated TLM (20 μg/ml) for 45 min on ice in the dark. For biotinylated TLM a secondary incubation step with steptavidin-FITC (20 μg/ml) (Sigma) for 30 min on ice in the dark is required. After washing with PBS, cells were resuspended in 300 μl PBS and analyzed by flow cytometry."}}, "data": [{"smiles": "CC(=O)N[C@H]1[C@H]([C@H](O)[C@@H](C)O)OC(O)(C(=O)O)C[C@@H]1O", "note": "(stereo partly shown) [analogue a, 5-N-acetyl-9-deoxy-neuraminic acid]", "values": [{"measurement": "LPV-permissivity", "setting": "[1]", "value": "to a lesser extent"}, {"measurement": "effect on LFA binding", "setting": "[2]", "value": "increased binding of LFA"}, {"measurement": "effect on TLM binding", "setting": "[2]", "value": "increased binding"}, {"measurement": "effect on VVA binding", "setting": "[2]; decrease = masking of GalNAc by sialic acid", "value": "significantly decreased VVA-binding"}]}]}
